One test addresses ATR kinase (Homo sapiens (Human), UniProt Q13535). Nature of the test: In vitro ATR kinase inhibition assay (Mobility Shift Assay, Caliper EZ Reader). Type of test: biochemical. Particulars: ATP concentration of Km; 4 h at 28° C. The method, then:
Experimental method: The inhibitory activity of the compounds on ATR kinase in vitro was determined by Mobility Shift Assay at an ATP concentration of Km using Caliper EZ Reader as a mobility shift assaying technology based on microfluidic chip technology.
Experimental procedure: (1) The compounds to be tested were dissolved in DMSO and serially diluted 4× for a total of 10 concentrations; (2) 0.06 μL of the compounds at different concentrations were pipetted into a 384-well plate using an Echo pipetting system; (3) a 2× kinase solution with a concentration of 10 nM ATR kinase was prepared from the ATR kinase and the 1× kinase buffer; and a 2× substrate solution with a concentration of 6 μM 5-FAM-AK-17 and 4 μM ATP was prepared from 5-FAM-AK-17, ATP and the 1× kinase buffer; (4) 10 μL of the 2× kinase solution was added into the 384-well plate and incubated for 10 min at room temperature; 10 μL of the 2× substrate solution was then added and incubated for 4 h at 28° C.; (5) 30 μL of the termination buffer was added to terminate the reaction, and then the 384-well plate was put into the Caliper EZ Reader to read the conversion rate data.

Test [1] has as its system human colon cancer LoVo cells. Kind of test: Cell proliferation inhibition assay (CellTiter-Glo). Type of test: cell-based. The following applies: LoVo cells, 96 hours incubation; for Emax: read-out: Max Inhibition. An excerpt:
Experimental method: A CellTiter-Glo cell viability assay kit was used to test the inhibitory effect of the compounds on the in vitro proliferation of human colon cancer LoVo cells.
Experimental materials: LoVo cells (ATCC, Cat. No. CCL-29); F-12K medium (Invitrogen, Cat. No. 21127-022); fetal bovine serum (Biological Industries, Cat. No. 04-002-1A); GlutaMAX (Gibco, Cat. No. 35050-061); 0.25% trypsin-EDTA (Invitrogen, Cat. No. 25200-072); CellTiter-Glo kit (Promega, Cat. No. G7558).
Experimental procedure: (1) F-12K medium, fetal bovine serum and GlutaMAX were formulated into a complete medium for culturing LoVo cells; (2) well-grown LoVo cells were taken, digested with trypsin and transferred to a centrifuge tube, and centrifuged; the supernatant was discarded, and cells were resuspended by adding a fresh medium and counted by a Vi-CELL XR cell counter; the density of the cell suspension was adjusted to 25,000 to 30,000 cells/mL, and the cell suspension was added at 100 μL/well in a 96-well cell culture plate, while a blank control group was set up with no cells added, and the cell culture plate was incubated in a carbon dioxide incubator overnight; (3) a DMSO solution of the compound to be tested was dispensed into the above 96-well cell culture plate using an HP D300 ultra-micro sampler, with 0.5 μL of the solution per well and 10 concentrations for each compound (3× dilution), while a DMSO control group with no compound added was set up, and the plate was continued to be incubated in a carbon dioxide incubator for 96 hours; (4) the cell culture plate was taken out and equilibrated to room temperature, with 100 μL of a CellTiter-Glo reagent added to each well, and then the plate was kept away from light, shaken for 10 minutes and then incubated for 10 minutes; (5) the cell culture plate was put into EnSpire for plate reading, and the luminescence value RLU was recorded.
Data processing: (1) The inhibition rate was calculated from the luminescence values: “RLUDMSO” is the luminescence value of the DMSO control group without compound, “RLUblank” is the luminescence value of the blank control group without cells, and “RLUcompound” is the luminescence value of the compound test group, and the inhibition rate=[1−(RLUcompound−RLUblank)/(RLUDMSO−RLUblank)]×100%; (2) with curve fitting using the Excel add-on XLFit, the IC50 value was calculated.

ATR kinase, sequence (Q13535 whole entry): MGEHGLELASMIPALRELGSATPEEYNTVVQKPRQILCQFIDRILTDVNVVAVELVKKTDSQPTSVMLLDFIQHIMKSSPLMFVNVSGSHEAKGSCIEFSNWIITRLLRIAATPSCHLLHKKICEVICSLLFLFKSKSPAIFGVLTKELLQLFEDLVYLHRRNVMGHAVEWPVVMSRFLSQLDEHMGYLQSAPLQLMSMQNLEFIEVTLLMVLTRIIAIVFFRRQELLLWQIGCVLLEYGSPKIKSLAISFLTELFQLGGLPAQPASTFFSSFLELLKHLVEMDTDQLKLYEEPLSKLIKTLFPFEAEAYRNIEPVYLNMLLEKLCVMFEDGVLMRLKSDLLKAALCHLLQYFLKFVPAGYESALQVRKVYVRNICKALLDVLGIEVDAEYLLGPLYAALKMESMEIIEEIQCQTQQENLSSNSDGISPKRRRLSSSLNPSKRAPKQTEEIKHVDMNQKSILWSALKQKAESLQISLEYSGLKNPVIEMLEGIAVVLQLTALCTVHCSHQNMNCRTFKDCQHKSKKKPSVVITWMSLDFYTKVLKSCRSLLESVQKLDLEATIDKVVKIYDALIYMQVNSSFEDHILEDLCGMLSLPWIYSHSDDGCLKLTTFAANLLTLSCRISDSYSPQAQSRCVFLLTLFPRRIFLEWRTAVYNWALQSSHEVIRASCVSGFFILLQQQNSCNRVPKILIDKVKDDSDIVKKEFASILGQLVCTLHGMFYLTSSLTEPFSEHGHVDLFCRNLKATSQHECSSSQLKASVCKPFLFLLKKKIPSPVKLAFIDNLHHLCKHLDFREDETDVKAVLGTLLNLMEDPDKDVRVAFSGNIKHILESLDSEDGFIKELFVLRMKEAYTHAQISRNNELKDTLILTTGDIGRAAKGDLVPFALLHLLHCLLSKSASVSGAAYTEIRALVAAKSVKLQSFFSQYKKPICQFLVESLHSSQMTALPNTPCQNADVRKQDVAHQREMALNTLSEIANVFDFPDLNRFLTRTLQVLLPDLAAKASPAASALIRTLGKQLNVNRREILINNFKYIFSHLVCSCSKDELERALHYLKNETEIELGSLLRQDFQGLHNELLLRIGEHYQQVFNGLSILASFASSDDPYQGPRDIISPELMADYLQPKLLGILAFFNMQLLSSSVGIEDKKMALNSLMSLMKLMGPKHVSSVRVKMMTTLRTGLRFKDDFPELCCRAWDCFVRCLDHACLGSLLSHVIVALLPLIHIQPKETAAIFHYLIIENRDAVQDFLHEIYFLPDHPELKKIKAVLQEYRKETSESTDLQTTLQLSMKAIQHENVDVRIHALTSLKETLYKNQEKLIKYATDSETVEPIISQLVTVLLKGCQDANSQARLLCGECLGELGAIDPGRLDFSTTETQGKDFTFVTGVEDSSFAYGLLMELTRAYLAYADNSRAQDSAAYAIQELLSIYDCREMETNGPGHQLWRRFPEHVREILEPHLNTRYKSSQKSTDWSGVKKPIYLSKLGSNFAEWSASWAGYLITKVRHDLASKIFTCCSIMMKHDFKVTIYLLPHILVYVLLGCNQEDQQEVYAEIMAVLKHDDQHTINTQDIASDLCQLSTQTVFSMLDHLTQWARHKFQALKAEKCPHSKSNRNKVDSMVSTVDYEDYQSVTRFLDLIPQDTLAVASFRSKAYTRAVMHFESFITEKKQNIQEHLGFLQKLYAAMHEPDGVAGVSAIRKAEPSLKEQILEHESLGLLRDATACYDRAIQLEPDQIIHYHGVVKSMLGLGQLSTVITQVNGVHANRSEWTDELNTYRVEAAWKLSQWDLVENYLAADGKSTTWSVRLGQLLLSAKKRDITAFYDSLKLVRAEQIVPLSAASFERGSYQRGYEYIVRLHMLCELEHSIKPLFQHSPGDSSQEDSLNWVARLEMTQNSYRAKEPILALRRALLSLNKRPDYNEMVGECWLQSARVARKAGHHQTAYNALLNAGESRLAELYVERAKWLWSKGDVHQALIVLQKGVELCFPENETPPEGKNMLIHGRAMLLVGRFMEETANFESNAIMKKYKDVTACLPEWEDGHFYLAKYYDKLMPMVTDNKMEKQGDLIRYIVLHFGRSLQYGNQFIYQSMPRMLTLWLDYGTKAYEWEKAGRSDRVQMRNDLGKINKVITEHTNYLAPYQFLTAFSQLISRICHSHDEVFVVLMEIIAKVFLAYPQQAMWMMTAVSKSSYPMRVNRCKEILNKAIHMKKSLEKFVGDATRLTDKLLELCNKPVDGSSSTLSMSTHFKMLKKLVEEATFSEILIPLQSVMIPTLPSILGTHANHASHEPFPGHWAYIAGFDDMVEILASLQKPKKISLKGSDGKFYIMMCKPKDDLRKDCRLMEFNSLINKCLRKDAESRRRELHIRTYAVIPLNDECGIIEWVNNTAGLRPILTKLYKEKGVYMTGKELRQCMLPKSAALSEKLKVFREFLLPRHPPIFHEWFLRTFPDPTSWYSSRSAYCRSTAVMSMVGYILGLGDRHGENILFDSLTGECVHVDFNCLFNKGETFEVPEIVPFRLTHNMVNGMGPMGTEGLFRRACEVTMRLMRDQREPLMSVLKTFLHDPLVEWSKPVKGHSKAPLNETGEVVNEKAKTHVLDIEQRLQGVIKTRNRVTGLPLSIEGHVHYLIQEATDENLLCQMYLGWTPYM
ATR kinase, sequence (Q8WXE1 whole entry partner): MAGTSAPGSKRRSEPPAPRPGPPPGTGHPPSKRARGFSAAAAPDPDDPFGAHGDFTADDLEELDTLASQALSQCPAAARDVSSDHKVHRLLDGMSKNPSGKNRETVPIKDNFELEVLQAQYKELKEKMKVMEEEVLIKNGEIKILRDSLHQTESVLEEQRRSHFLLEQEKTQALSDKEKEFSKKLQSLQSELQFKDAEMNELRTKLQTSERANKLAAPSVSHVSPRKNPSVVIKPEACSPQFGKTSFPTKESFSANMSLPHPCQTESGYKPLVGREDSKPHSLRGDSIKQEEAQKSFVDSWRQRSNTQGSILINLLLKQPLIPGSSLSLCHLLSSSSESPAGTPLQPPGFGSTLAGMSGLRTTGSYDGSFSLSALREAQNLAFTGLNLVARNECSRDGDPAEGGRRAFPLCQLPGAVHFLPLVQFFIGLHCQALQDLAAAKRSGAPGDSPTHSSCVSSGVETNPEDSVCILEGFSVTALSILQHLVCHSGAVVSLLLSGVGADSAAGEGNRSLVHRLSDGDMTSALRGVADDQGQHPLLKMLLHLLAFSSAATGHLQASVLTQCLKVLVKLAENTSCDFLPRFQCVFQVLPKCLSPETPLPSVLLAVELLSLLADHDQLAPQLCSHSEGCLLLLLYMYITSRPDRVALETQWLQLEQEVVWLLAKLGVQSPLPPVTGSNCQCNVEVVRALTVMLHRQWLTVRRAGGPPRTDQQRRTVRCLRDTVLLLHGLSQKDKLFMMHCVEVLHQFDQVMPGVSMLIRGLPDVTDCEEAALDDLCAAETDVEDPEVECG

On to `C[C@@H]1COCCN1c1nc(-c2cc(F)cc3[nH]ccc23)nc2c1ccn2S(C)(=O)=O` [Compound 20, (R)-4-(2-(6-fluoro-1H-indol-4-yl)-7-(methylsulfonyl)-7H-pyrrolo[2,3-d]pyrimidin-4-yl)-3-methylmorpholine], for which the IC50 on ATR kinase was determined as 1.6 nM. For the same compound, the Emax in test [1] (Homo sapiens) came to 91%.
As to `C[C@@H]1COCCN1c1nc(-c2ccnc3[nH]ccc23)nc2c1ccn2S(=O)(=O)CCO` [Compound 21, (R)-2-((4-(3-methylmorpholinyl)-2-(1H-pyrrolo[2,3-b]pyridin-4-yl)-7H-pyrrolo[2,3-d]pyrimidin-7-yl)sulfonyl)ethanol], the IC50 on ATR kinase worked out at 4.4 nM. Further, in test [1], 710 nM corresponded to half-maximal inhibition (IC50) and the “Max Inhibition” value is recorded as 92%.
Regarding `C[C@@H]1COCCN1c1nc(-c2ccnc3[nH]ccc23)nc2c1ncn2S(C)(=O)=O` [Compound 22, (R)-3-methyl-4-(9-(methylsulfonyl)-2-(1H-pyrrolo[2,3-b]pyridin-4-yl)-9H-purin-6-yl)morpholine], at ATR kinase, the IC50 was determined as 10 nM. Moreover, the Emax in test [1] (Homo sapiens) was determined as 93%.
`C[C@@H]1COCCN1c1nc(-c2ccnc3[nH]ccc23)nc2c1cnn2S(C)(=O)=O` [Compound 23, (R)-3-methyl-4-(1-(methylsulfonyl)-6-(1H-pyrrolo[2,3-b]pyridin-4-yl)-1H-pyrazolo[3,4-d]pyrimidin-4-yl)morpholine]: on ATR kinase, the 50% inhibitory concentration (IC50) is 15 nM. Further, in test [1] (Homo sapiens), the IC50 came out at 740 nM and the Emax amounted to 92%.
For `C[C@@H]1COCCN1c1cc(-c2ccnc3[nH]ccc23)nc2c1ncn2S(C)(=O)=O` [Compound 24, (R)-3-methyl-4-(3-(methylsulfonyl)-5-(1H-pyrrolo[2,3-b]pyridin-4-yl)-3H-imidazo[4,5-b]pyridin-7-yl)morpholine], at ATR kinase, the IC50 came out at 15 nM. Besides, the Emax in test [1] (Homo sapiens) is 92%.
On to `C[C@@H]1COCCN1c1nc(-c2cncc3[nH]ccc23)cc2c1ncn2S(C)(=O)=O` [Compound 25, (R)-3-methyl-4-(1-(methylsulfonyl)-6-(1H-pyrrolo[2,3-c]pyridin-4-yl)-1H-imidazo[4,5-c]pyridin-4-yl)morpholine], for which the IC50 at ATR kinase was 9.4 nM. Moreover, the Emax in test [1] (Homo sapiens) was found to be 89%.
For `C[C@@H]1COCCN1c1nc(-c2ccnc3[nH]ccc23)cc2c1ccn2S(C)(=O)=O` [Compound 26, (R)-3-methyl-4-(1-(methylsulfonyl)-6-(1H-pyrrolo[2,3-b]pyridin-4-yl)-1H-pyrrolo[3,2-c]pyridin-4-yl)morpholine] the same measures were 8.6 nM and 92%.
As for `C[C@@H]1COCCN1c1nc(-c2nc3ccccc3[nH]2)nc2c1ccn2S(C)(=O)=O` [Compound 27, (R)-4-(2-(1H-benzo[d]imidazol-2-yl)-7-(methylsulfonyl)-7H-pyrrolo[2,3-d]pyrimidin-4-yl)-3-methylmorpholine], the half-inhibitory concentration (IC50) at ATR kinase came to 1.6 nM. Further, the Emax in test [1] (Homo sapiens) came out at 94%.
Consider `CNc1nc2ccccc2n1-c1nc(N2CCOC[C@H]2C)c2ccn(S(C)(=O)=O)c2n1` [Compound 28, (R)-N-methyl-1-(4-(3-methylmorpholinyl)-7-(methylsulfonyl)-7H-pyrrolo[2,3-d]pyrimidin-2-yl)-1H-benzo[d]imidazol-2-amine], for which the IC50 at ATR kinase was determined as 4.1 nM. Also, in test [1], the IC50 was found to be 100 nM and the “Max Inhibition” value is 92%.
Turning to `Cc1cc(-c2nc(N3CCOC[C@H]3C)c3ccn(S(C)(=O)=O)c3n2)c2cc[nH]c2c1` [Compound 29, (R)-3-methyl-4-(2-(6-methyl-1H-indol-4-yl)-7-(methylsulfonyl)-7H-pyrrolo[2,3-d]pyrimidin-4-yl)morpholine], at ATR kinase, the IC50 was 2.3 nM. The Emax in test [1] (Homo sapiens) amounted to 94%.
As for `C[C@@H]1COCCN1c1nc(-c2cc(C#N)cc3[nH]ccc23)nc2c1ccn2S(C)(=O)=O` [Compound 30, (R)-4-(4-(3-methylmorpholinyl)-7-(methylsulfonyl)-7H-pyrrolo[2,3-d]pyrimidin-2-yl)-1H-indol-6-carbonitrile], the IC50 on ATR kinase was 9.4 nM. Besides, in test [1], the IC50 was determined as 1060 nM and the “Max Inhibition” value is 93%.
With `C[C@@H]1COCCN1c1nc(-c2cc(Cl)cc3[nH]ccc23)nc2c1ccn2S(C)(=O)=O` [Compound 31, (R)-4-(2-(6-chloro-1H-indol-4-yl)-7-(methylsulfonyl)-7H-pyrrolo[2,3-d]pyrimidin-4-yl)-3-methylmorpholine], on ATR kinase, the IC50 was 4.4 nM. Moreover, the Emax in test [1] (Homo sapiens) is 93%.
The matching figures for `COc1cc(-c2nc(N3CCOC[C@H]3C)c3ccn(S(C)(=O)=O)c3n2)c2cc[nH]c2c1` [Compound 32, (R)-4-(2-(6-methoxy-1H-indol-4-yl)-7-(methylsulfonyl)-7H-pyrrolo[2,3-d]pyrimidin-4-yl)-3-methylmorpholine]: 5.3 nM and 95%.
Turning to `CCS(=O)(=O)n1ccc2c(N3CCOC[C@H]3C)nc(-c3ccnc4[nH]ccc34)nc21` [Compound 33, (R)-4-(7-(ethylsulfonyl)-2-(1H-pyrrolo[2,3-b]pyridin-4-yl)-7H-pyrrolo[2,3-d]pyrimidin-4-yl)-3-methylmorpholine], the IC50 at ATR kinase was 5 nM. Moreover, in test [1] (Homo sapiens), the Emax is 92%.
Consider `C[C@@H]1COCCN1c1nc(-c2ccnc3[nH]ccc23)nc2c1ccn2S(=O)(=O)N(C)C` [Compound 34, (R)-N,N-dimethyl-4-(3-methylmorpholinyl)-2-(1H-pyrrolo[2,3-b]pyridin-4-yl)-7H-pyrrolo[2,3-d]pyrimidine-7-sulfamide], for which the IC50 on ATR kinase worked out at 7.1 nM; in test [1] it was 290 nM. For the same compound, in test [1], the “Max Inhibition” value amounted to 93%.
